Test results from US7815907B2, “Antibodies to insulin-like growth factor I receptor” (Amgen Fremont Inc., priority 2001, dated 2010).

How the values were obtained:
[1] = molecular target: T1, extracellular domain of IGF-IR (Homo sapiens, UniProt P08069); assay: BIAcore affinity measurement, Protocol 1; assay type: binding; conditions: BIAcore 3000; antibody captured on protein-A, IGF-IR extracellular domain injected
T1 construct: Different concentrations of the extracellular domain of IGF-IR were injected on the sensorchip
Description: (§1) We performed affinity measures of purified antibodies by surface plasmon resonance using the BIAcore 3000 instrument, following the manufacturer's protocols.
To perform kinetic analyses, protein-A was immobilized on the sensorchip surfaces of the BIAcore. The sensorchip was then used to capture the anti-IGF-IR antibodies of the present invention. Different concentrations of the extracellular domain of IGF-IR were injected on the sensorchip and the binding and dissociation kinetics of the interactions between the anti-IGF-IR antibodies and the extracellular domain of IGF-IR were analyzed. The data were evaluated with global fit Langmuir 1:1, using baseline drift models available on the BIAevaluation software provided by BIAcore.

COS7 IGF-IR = assay: Species crossreactivity by immunoprecipitation/Western blot; assay type: binding, old world monkey; conditions: immunoprecipitation, antibody 1 μg/ml
Description: (§2) To perform immunoprecipitation experiments, we plated cells in DMEM high glucose media supplemented with L-glutamine (0.29 mg/ml), 10% heat-inactivated FBS, and 500 μg/ml each of geneticin, penicillin and streptomycin to 50% confluence in T25 flasks. We then added 100 μl of an antibody of the invention in Hank's buffered saline solution (HBSS; Gibco BRL) at a concentration of 1 μg/ml. We incubated the plates for 30 minutes at 37° C. in an incubator and then stimulated the cells with IGF-I at 100 ng/ml for 10 minutes at room temperature. We lysed the cells in RIPA buffer (Harlow and Lane, supra) and immunoprecipitated IGF-IR with 2 μg of pan-specific SC-713 anti-IGF-IR antibody (Santa Cruz) plus protein A agarose beads for 1 hour at 4° C. We pelleted the beads and wash three times with PBS/T (PBS+0.1% Tween-20) and then boiled the beads in 40 μl Laemmli buffer containing 5% βME.
(§3) The samples prepared as described above were then analyzed by Western blot. We loaded 12 μl of each sample per lane on 4-10% gradient Novex™ gels run with 1×MES buffer (Novex™). Gels were run at 150V for 1 hour or at 200V for approximately 30 minutes. We then transferred the gel to a membrane in Novex™ transfer buffer with 10% methanol either overnight at 100 mA or for 1-1.5 hours at 250 mA. […]

IGF-IR [2] = molecular target: T2, IGF-IR (Homo sapiens, UniProt P08069); assay: IGF-IR levels in 3T3/IGF-IR tumors by western blot after antibody and/or adriamycin; assay type: in vivo, nude mice; design: expressed in transfected cells; host or cells: NIH-3T3 (mouse fibroblasts)
Description: Tumors were induced in nude mice as described in Example IX. Mice with established subcutaneous tumors of approximately 400 mm^3 were treated with a single injection of 250 μg 2.13.2 antibody (i.p.) or with 7.5 mg/kg adriamycin (i.v.), either as single agents or in combination, as described in Example IX. 72 hours after administration of the agents, tumors were extracted as described in Example VIII, and equal amounts of the tumor extracts were subjected to sodium […] polyacrylamide gel electrophoresis (SDS PAGE) and western blot analysis using the anti-IGF-IR antibody SC-713 (Santa Cruz). […] Each lane represents equal amounts of protein from individual tumors from individual mice.

MCF-7 tumors = assay: Growth inhibition of breast cancer cell tumors; assay type: in vivo, nude mice
Description: Nude mice as described in Example VIII were implanted with biodegradable estrogen pellets (0.72 mg 17-β-estradiol/pellet, 60 day release; Innovative Research of America). After 48 hours, tumors were induced in nude mice essentially as described in Example IX except that MCF-7 cells (ATCC HTB-22) were used. MCF-7 cells are estrogen-dependent human breast carcinoma cells. Mice with established subcutaneous tumors of approximately 250 mm^3 were treated with 50 μg 2.13.2 antibody (i.p.) on days 1, 4, 7, 10, 13, 16, 19 and 22 […] or with 6.25 mg/kg taxol (i.p.) on days 1, 2, 3, 4, 5 (q1dx5), either as single agents or in combination, essentially as described in Example IX.
Mice having established tumors from MCF-7 cells as described immediately above were treated on day 1 with various amounts of 2.13.2 antibody (i.p.) alone or with 3.75 mg/kg adriamycin (i.v.), essentially as described in Example IX.
Mice having established tumors from MCF-7 cells as described immediately above were treated with 250 μg 2.13.2 antibody (i.p.) on days 1, 8, 15 and 23 or with a biodegradable tamoxifen pellet (25 mg/pellet, free base, 60 day release, Innovative Research of America), either as single agents or in combination, essentially as described in Example IX. The tamoxifen pellet was implanted on day 1 after the tumor was established.

A431 tumors = assay: Growth inhibition of epidermoid carcinoma cell tumors; assay type: in vivo, nude mice
Description: Tumors were induced in nude mice essentially as described in Example IX except that A431 cells (ATCC CRL 1555) were used. A431 cells are human epidermoid carcinoma cells that overexpress EGFR. Mice with established subcutaneous tumors of approximately 250 mm^3 were treated on days 1, 8, 15, 22 and 29 with 500 μg 2.13.2 antibody (i.p.) or were treated once daily for 27 days with 10 mg/kg CP-358,774 given orally (p.o.), either as single agents or in combination, as described in Example IX. CP-358,774 is described in U.S. Pat. No. 5,747,498 and Moyer et al., Cancer Research 57: 4838-4848 (1997), herein incorporated by reference.

IGF-IR [3] = molecular target: T2, IGF-IR; assay: Species crossreactivity by immunoprecipitation/Western blot; assay type: binding; design: on cells from a variety of animals; endogenous in cells; conditions: immunoprecipitation, antibody 1 μg/ml
Description: as §2, §3

[4] = molecular target: T1, extracellular domain of IGF-IR; assay: BIAcore affinity measurement, Protocol 2; assay type: binding; conditions: BIAcore 3000; as Fagerstam et al.
Description: as §1
BIAcore measurements were performed essentially as described by Fagerstam et al. “Detection of antigen-antibody interactions by surface plasmon resonance. Applications to epitope mapping.” J. Mol. Recog. 3: 208-214. (1990).

2.13.2: human IgG2κ monoclonal antibody specific for IGF-IR from hybridoma 2.13.2 (ATCC PTA-2788)
Kd [1]: 3.5 nM | binding to COS7 IGF-IR (COS7 IGF-IR): able to bind | IGF-IR levels in tumors, adriamycin and antibody together (IGF-IR [2]; 72 hours after 250 μg 2.13.2 i.p. plus 7.5 mg/kg adriamycin i.v.): dramatic decrease in IGF-IR levels | IGF-IR levels in tumors, single agent (IGF-IR [2]; 72 hours after single 250 μg 2.13.2 i.p. or 7.5 mg/kg adriamycin i.v.): some decrease in IGF-IR levels | effect on effectiveness of taxol (MCF-7 tumors; 50 μg i.p. once every three days with 6.25 mg/kg taxol i.p. q1dx5): enhances the effectiveness of taxol | MCF-7 tumor growth (MCF-7 tumors; 50 μg i.p. once every three days, by itself): inhibits human breast cancer cell growth | MCF-7 tumor growth (MCF-7 tumors; 250 μg i.p. on days 1, 8, 15 and 23, by itself): inhibits human breast cancer growth | effect on effectiveness of tamoxifen (MCF-7 tumors; 250 μg i.p. on days 1, 8, 15 and 23 with tamoxifen pellet 25 mg): enhances the effectiveness of tamoxifen | MCF-7 tumor growth (MCF-7 tumors; single treatment i.p. on day 1, by itself): inhibits human breast cancer cell growth | effect on effectiveness of adriamycin (MCF-7 tumors; single treatment on day 1 with 3.75 mg/kg adriamycin i.v.): enhances the effectiveness of adriamycin | effect on effectiveness of CP-358,774 (A431 tumors; 500 μg i.p. on days 1, 8, 15, 22 and 29 with 10 mg/kg CP-358,774 p.o. daily for 27 days): enhances the effectiveness of CP-358,774 | A431 tumor growth (A431 tumors; multiple doses, alone or in combination with CP-358,774 (FIG. 16)): inhibit A431 tumor growth | binding to human IGF-IR (IGF-IR [3]): able to bind | Kd [4]: 1.53 nM
